Data as given in patent publication US20250367167A1, “COMPOSITION FOR MITOCHONDRIAL MODIFICATION COMPRISING A COMBINATION OF TWO OR MORE NATURAL PIGMENTS” (University of Seoul Industry Cooperation Foundation, priority 2024, published 2025).
Where “and” joins values, the source holds several entries; their conditions need not be identical. Equal entries are not always repeated.

Assays:
[1] = Absorption spectrum analysis of natural pigments (UV/Vis); type: physicochemical; conditions: 100 μM β-carotene, 60 μM anthocyanins, 40 μM chlorophyll a
Experimental: In order to analyze the absorbance spectra of three natural pigments (i.e., β-carotene, delphinidin chloride (anthocyanin), and chlorophyll a (Sigma-Aldrich)), the absorbance analysis was performed using a UV/Vis NANO spectrophotometer (Nabi).
In the drawing, “Experimental result” corresponds to the actually-measured absorption spectrum, and “Calculated result” represents the result of added-up values of the absorption spectrum of single natural pigments.
The results of the absorption spectrum analysis over time by mixing 100 µM B-carotene, 60 μM anthocyanin, and 40 μM chlorophyll a in various combinations are shown in FIG. 2E to 2H.

[2] = system: mitochondrial electron transport chain protein complexes; assay: ATP production after treatment with inhibitors of electron transport chain protein complexes; type: biochemical, human; conditions: 2 μM inhibitor, 1 hour; C@mt; light 640-680 nm, 5 mW, 80 minutes
Experimental: It is generally known that ATP is produced through protein complexes involved in the electron transport process during the oxidative phosphorylation process of mitochondria. Accordingly, an analysis was performed using the ATP Assay Kit (Abcam) to evaluate the amount of ATP production when treating with inhibitors for each protein complex.
A total of 50 μL of mitochondria including each combination of natural pigments (C@mt, BC@mt, AC@mt, or BAC@mt) and 2 μM of inhibitors (Rotenone, Malonate, Antimycin A or Cyanide) for each protein complex were added to the E-tube and incubated at room temperature for 1 hour. Then, the supernatant was removed using a centrifuge (12,000 g, 15 minutes) and resuspended in 50 μL of PBS. 50 μL of mitochondria including a combination of natural pigments treated with inhibitors were added to each 96-well black plate, and irradiated with light having a wavelength of 640-680 nm at an intensity of 5 mW for 80 minutes. […]
Then, the amount of ATP production was measured by measuring the fluorescence intensity (Ex/Em=535/587 nm) using a microplate reader. The amount of ATP production was calculated by subtracting the fluorescence value measured upon irradiation with light for 0 minutes from the fluorescence value measured upon irradiation with light for 80 minutes, and the results are shown in FIGS. 8A and 8B.

| Compound | wavelength of high absorbance (absorption spectrum) [1] | ATP production after inhibitor treatment [2] |
| --- | --- | --- |
| Oc1cc(O)c2cc(O)c(-c3cc(O)c(O)c(O)c3)[o+]c2c1 [anthocyanins, delphinidin chloride] | 555 nm |  |
| C=Cc1c(C)c2cc3nc(c4c5[n-]c(cc6nc(cc1[n-]2)C(C)=C6CC)c(C)c5C(=O)[C@@H]4C(=O)OC)[C@@H](CCC(=O)OC/C=C(\C)CCC[C@H](C)CCC[C@H](C)CCCC(C)C)[C@@H]3C.[Mg+2] [chlorophyll a] | 415 nm and 662 nm |  |
| O=C(O)CC(=O)O [malonate, Malonate] |  | rapid decrease |
| CC1=C(/C=C/C(C)=C/C=C/C(C)=C/C=C/C=C(C)/C=C/C=C(C)/C=C/C2=C(C)CCCC2(C)C)C(C)(C)CCC1 [β-carotene] | 475 nm |  |
